Laboratory results from publication PMC12051620, “Molecular basis underlying the specificity of an antagonist AA92593 for mammalian melanopsins” (The Journal of Biological Chemistry, 2025).

Test system: jumping spider rhodopsin-1 WT
Assay: GsX GloSensor assay with Gsα/q11
Type: cell-based
Conditions: 16.7 μM AA92593, COS-1 cells
Source text: We next tested the effect of AA92593 on jumping spider rhodopsin-1, a Gq-coupled visual opsin but not melanopsin (see Figs. 2, S2, and S3) ([41]). Similar to non-mammalian-type and invertebrate melanopsins, jumping spider rhodopsin-1 was not sensitive to AA92593 as assessed using the GsX GloSensor assay (Fig. 7L). […] The introduction of I189^ECL2W/Y207^5.42F impaired the light-dependent cAMP responses even in the absence of AA92593 (Fig. S11). Taken together, the non-melanopsin Gq-coupled opsin cannot be functionally converted to an AA92593-sensitive type by site-directed mutagenesis, in contrast to non-mammalian-type and invertebrate melanopsins. […]
For GloSensor assay, opsins, GloSensor assay sensor (coded by pGlo-22F), and NanoBiT-tagged G proteins were transiently expressed in COS-1 cells (kindly provided from Dr David Farrens, Oregon Health and Science University) using PEI as described previously ([24], [52]). […] For GFP-fluorescence microscopy, a 35-mm cell culture dish (IWAKI) was transfected with 2 μg melanopsin-GFP plasmid and 8 μg PEI in 400 μl Opti-mem and 1.2 ml D-MEM. […]

COc1ccc(S(=O)(=O)N2CCCCC2)cc1C [AA92593]
sensitivity to AA92593: not sensitive
